Data from patent publication US10945998B2, “Inhibitors of short-chain dehydrogenase activity for treating fibrosis” (CASE WESTERN RESERVE UNIVERSITY, priority 2015, dated 2021).
Values belong to the molecule of their own block, whether it stands above or below them.

Assays:
[1] = test system: mouse model of intestinal fibrosis; test: DSS chronic colitis mouse model of intestinal fibrosis; format: in vivo, FVB/N mice; details: 5 mg/kg IP twice a day for 28 days from day 41, colons day 69, vs vehicle
Protocol: To establish a model of intestinal fibrosis due to chronic colitis, 8-week male FVB/N mice were subjected to three cycles of dextran sodium sulfate (DSS; 2% w/v) in sterile drinking water. Each cycle consisted of 7 days of DSS followed by 10 days of recovery without DSS. […] On day 69, colons were harvested from mice, longitudinally open, and embedded in agar for orientation, and fixed in formalin overnight. Slides were prepared from paraffin-embedded formalin-fixed samples according to standard procedures. The degree of fibrosis in the mouse colon in the two groups were compared by Masson's Trichrome staining. The intensity of positive trichrome staining was quantified using ImageJ software in the following manner. 10 evenly spaced images were captured at 20× from each third of the colon from each mouse. (FIGS. 7(A-D)) Significant lymphovascular compartments or extracolonic connective tissue attachments seen on slides were excluded during the image capture. RGB channels were split from the images, and the blue channel from each image was divided by the red channel. After generating an intensity histogram of all pixels in the resultant image, the area under the curve (AUC) was calculated for intensities above 1.3 (blue/red) cutoff. The sum of AUC (total trichrome intensity) was normalized by the colon length.

[2] = test system: mouse model of idiopathic pulmonary fibrosis; test: bleomycin mouse model of idiopathic pulmonary fibrosis; format: in vivo, C57/BL6J mice; details: vs vehicle
Protocol: 8 week old female C57/BL6J mice were purchased from Jackson Labs (stock #000664). All mouse studies were approved by the institutional animal care and use committee at Case Western Reserve University.
To induce disease onset, mice were anesthetized with ketamine/xylazine and the trachea exposed by cervical […]. Bleomycin sulfate (Enzo-BML-AP302-0010) was dissolved in H2O and administered intratracheally as a single dose of 2 mg/kg in 50 μl solution per animal.
Mortality was observed daily over the duration of the study. Body weights were measured prior to instillation and twice weekly post-bleomycin instillation.
Hydroxyproline was used to measure collagen content in mouse lungs (Sigma-MAK008-1KT). Briefly, mice were sacrificed and the right lung dissected for collagen quantitation. Experiments were performed according to the manufacturer's protocol. […] The hydrolyzed samples were incubated with 4-(Dimethylamino) benzaldehyde (DMAB) for 90 min at 60° C., and the absorbance of oxidized hydroxyproline was measured at 560 nm.

[3] = test system: PGE2 production by cell lines; test: PGE2 production by cell lines; format: cell-based
mice = test: toxicity after IP injection into mice
[4] = chemical stability when incubated with hepatocyte extracts; format: in vitro ADME
[5] = plasma half-life after IP injection into mice; format: in vivo; details: mouse, injected IP into mice
[6] = chemical stability when incubated with hepatocyte cell lines; format: in vitro ADME
[7] = chemical stability in aqueous solutions; format: physicochemical; details: over broad pH range
[8] = chemical stability when incubated with rat liver extracts; format: in vitro ADME
[9] = chemical stability when incubated with human liver extracts; format: in vitro ADME
[10] = chemical stability when incubated with mouse liver extracts; format: in vitro ADME
recombinant 15-PGDH = target: T1, recombinant 15-PGDH (Homo sapiens, UniProt P15428); test: inhibition of recombinant 15-PGDH; format: biochemical
T1 sequence (P15428 1-266): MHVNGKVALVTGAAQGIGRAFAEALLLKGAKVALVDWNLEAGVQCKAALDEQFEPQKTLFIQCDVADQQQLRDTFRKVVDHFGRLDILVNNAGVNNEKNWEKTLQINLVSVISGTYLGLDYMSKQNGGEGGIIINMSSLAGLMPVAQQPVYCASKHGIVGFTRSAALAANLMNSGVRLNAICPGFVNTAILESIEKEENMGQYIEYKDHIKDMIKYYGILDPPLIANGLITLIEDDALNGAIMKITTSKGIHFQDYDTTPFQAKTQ

[11] = 5.0 mg/kg IP 2× daily for 35 days after bleomycin

SMILES: CCCC[S+]([O-])c1sc2nc(-c3cccs3)cc(-c3ccccc3)c2c1N (single isomer, unassigned; (+)) [(+)SW033291]
colonic fibrosis (Masson's Trichrome staining intensity normalized by colon length) [1]: substantially reduced

SMILES: CCCC[S+]([O-])c1sc2nc(-c3cccs3)cc(-c3ccccc3)c2c1N (stereo not drawn) [SW033291, 2-(butylsulfinyl)-4-phenyl-6-(thiophen-2-yl)thieno[2,3-b]pyridin-3-amine]
survival [2, 11]: improved survival
weight change [2, 11]: enhanced maintenance of weight
collagen deposition (tissue hydroxyproline content) ([2]; lung, 5.0 mg/kg IP 2× daily after bleomycin): reduced collagen deposition

SMILES: CCCC[S+]([O-])c1sc2nc(-c3cccs3)cc(-c3ccccc3)c2c1N (stereo not drawn) [formula (IX)]
PGE2 production by cell lines [3]: increase PGE2 production
toxicity (mice; injected IP into mice at 0.3 μmole/per mouse twice daily for 21 days): no toxicity
immediate toxicity over 24 hours (mice; injected IP into mice at 0.6 μmole/per mouse): no immediate toxicity
immediate toxicity over 24 hours (mice; injected IP into mice at 1.2 μmole/per mouse): no immediate toxicity
chemical stability with hepatocyte extracts [4]: chemically stable
half-life [5]: 4.22 h
chemical stability with hepatocyte cell lines [6]: chemically stable
chemical stability in aqueous solutions [7]: chemically stable

chemical stability with liver extracts [8]: chemically stable
chemical stability with liver extracts [9]: chemically stable
chemical stability with liver extracts [10]: chemically stable
concentration at which recombinant 15-PGDH is inhibited (recombinant 15-PGDH): 3 nM
half-life [5]: 0.55 h
SMILES: CCCC[S+]([O-])c1sc2nc(-c3nccs3)cc(-c3cnc(C)n3C)c2c1N (stereo not drawn) [formula (X)]
concentration at which PGE2 production by cell lines is increased [3]: 20 nM
